Experiment: Inhibition of C-terminal 6XHis-tagged Shigella dysenteriae Stx1b (21 to 89 residues) expressed in Escherichia coli BL21 for 1 hr by ELISA assay

Structure (SMILES) | IC50 [µM]
O=C(O)c1cc(OCc2cn([C@@H]3O[C@H](CO)[C@H](O[C@H]4O[C@H](CO)[C@H](O)[C@H](O)[C@H]4O)[C@H](O)[C@H]3O)nn2)cc(OCc2cn([C@@H]3O[C@H](CO)[C@H](O[C@H]4O[C@H](CO)[C@H](O)[C@H](O)[C@H]4O)[C@H](O)[C@H]3O)nn2)c1 | 1070
[N-]=[N+]=N[C@@H]1O[C@H](CO)[C@H](O[C@H]2O[C@H](CO)[C@H](O)[C@H](O)[C@H]2O)[C@H](O)[C@H]1O | 4970
O=C(NCCOc1cc(OCCNC(=O)OCc2cn([C@@H]3O[C@H](CO)[C@H](O[C@H]4O[C@H](CO)[C@H](O)[C@H](O)[C@H]4O)[C@H](O)[C@H]3O)nn2)cc(C(=O)O)c1)OCc1cn([C@@H]2O[C@H](CO)[C@H](O[C@H]3O[C@H](CO)[C@H](O)[C@H](O)[C@H]3O)[C@H](O)[C@H]2O)nn1 | 1240
O=C(O)c1cc(OCCNC(=O)c2cc(OCc3cn([C@@H]4O[C@H](CO)[C@H](O[C@H]5O[C@H](CO)[C@H](O)[C@H](O)[C@H]5O)[C@H](O)[C@H]4O)nn3)cc(OCc3cn([C@@H]4O[C@H](CO)[C@H](O[C@H]5O[C@H](CO)[C@H](O)[C@H](O)[C@H]5O)[C@H](O)[C@H]4O)nn3)c2)cc(OCCNC(=O)c2cc(OCc3cn([C@@H]4O[C@H](CO)[C@H](O[C@H]5O[C@H](CO)[C@H](O)[C@H](O)[C@H]5O)[C@H](O)[C@H]4O)nn3)cc(OCc3cn([C@@H]4O[C@H](CO)[C@H](O[C@H]5O[C@H](CO)[C@H](O)[C@H](O)[C@H]5O)[C@H](O)[C@H]4O)nn3)c2)c1 | 19.9
O=C(NCCCCCCCCCCCCNC(=O)c1cc(OCc2cn([C@@H]3O[C@H](CO)[C@H](O[C@H]4O[C@H](CO)[C@H](O)[C@H](O)[C@H]4O)[C@H](O)[C@H]3O)nn2)cc(OCc2cn([C@@H]3O[C@H](CO)[C@H](O[C@H]4O[C@H](CO)[C@H](O)[C@H](O)[C@H]4O)[C@H](O)[C@H]3O)nn2)c1)c1cc(OCc2cn([C@@H]3O[C@H](CO)[C@H](O[C@H]4O[C@H](CO)[C@H](O)[C@H](O)[C@H]4O)[C@H](O)[C@H]3O)nn2)cc(OCc2cn([C@@H]3O[C@H](CO)[C@H](O[C@H]4O[C@H](CO)[C@H](O)[C@H](O)[C@H]4O)[C@H](O)[C@H]3O)nn2)c1 | 13.5
